Assay results taken from patent US4863902A, “Treatment of cancer” (Wakunaga Seiyaku Kabushiki Kaisha, priority 1985, dated 1989).

Legend:
[1] = test system: Colon adenocarcinoma 26 (mouse colon adenocarcinoma); assay: Tumor weight of transplanted Colon adenocarcinoma 26 in BALB/c mice; format: in vivo; details: Table 5, 5-FU 150 mg/Kg, hEGF-II 100 μg/Kg subcutaneous, average ± standard error of 6-12 mice
Description: After BALB/c mice were preliminarily fed in a thermostat (23°±0.5° C.), humidistat (60±5%) room for 1 week, those which appear to be healthy weighing 18-20 g were provided for the present experiment in 6-12 mice per 1 group.
(§1) Colon adenocarcinoma 26 (mouse colon adenocarcinoma) was minced into pieces and about 0.1 to 0.2 ml thereof was transplanted subcutaneously on the right side of mouse abdomen by a cell transplanting needle (trocker). Six days after transplantation, the size of tumor, namely longer diameter (a mm) and shorter diameter (b mm) of tumor were measured and the tumor weight was calculated according to the formula shown below [Instruction 14 (NCI) 1980].
(§2) Tumor weight (mg)=ab^2 /2
Before carrying out experiments, tumor weights were measured immediately before administration of the compounds and the mice were grouped into 3 groups by use of random numbers so that there may be no difference in average value of the tumor weights on initiation of experiments between the respective groups to make even the average values of tumor weights of the respective groups, and thereafter the compounds were administered to the respective groups.
In this FIGURE, the axis of abscissa indicates the experimental days with the day of compound administration being the day 1, and the axis of ordinate indicates tumor cell growth ratio which is the ratio of the tumor weight after elapse of the respective days relative to the tumor weight on the day 1 as being 100%.

[2] = test system: Colon adenocarcinoma 38 (mouse colon adenocarcinoma); assay: Tumor weight of transplanted Colon adenocarcinoma 38 in C57BL/6 mice; format: in vivo; details: for Tumor weight (day 1 = 100): 5-FU 150 mg/Kg
Description: as §1, with “38” for “26”, “Eleven” for “Six”
as §2
In the Table, days indicate the experimental days with the day of compound administration being as the day 1, and the tumor weight immediately before administration of compound of day 1 is made 100. The respective values show the average value ± standard error of case numbers of 10 to 20, in the Table, the marks of (*), * and *** indicate the statistical significance difference of the combined administration group relative to the 5-FU single administration group (the definition of P is as defined above).

[3] = Body weight (minus tumor weight) of Colon 26 bearing mice; format: in vivo, mouse; details: Experimental Example 5; 150 mg/Kg 5-FU, 100 μg/Kg hEGF subcutaneous
Description: That is, in Experimental Example 1, with the value of the body weight of the experimental animal immediately before administration of the drug from which the tumor weight is detracted as being 100, the ratio of the value of the total body weight of the experimental animal from which the tumor weight is detracted on the respective days after administration of the drug relative to this weight was calculated to obtain the results shown in FIG. 4. The symbols in the Figure are the same as in Experimental Example 1.

[4] = test system: P388/5-FU (mouse leukemia resistant to 5-FU); assay: Tumor weight of solid tumor of 5-FU resistant mouse leukemia in CDF1 mice; format: in vivo; details: 5-FU 150 mg/Kg
Excerpt: CDF1 strain male mice were employed. The feeding conditions, etc., were the same as in Experimental Example 1.
Of P388 (mouse leukemia), the strain having chemical resistance to 5-FU (P388/5-FU) was previously grown in the abdomen of CDF1 mouse. Eight days after transplantation into the abdomen, ascites (containing tumor cells) were collected, diluted with a liquid medium and transplanted subcutaneously at the axilla of mouse in 3×10^6 cells per mouse. Eight days after transplantation, the size of tumor was measured according to the same method as in Example 1 (Colon 26) and the tumor weight was calculated.
The grouping operation of mouse on initiation of experiments was conducted in the same manner as in Experimental Example 1. As for administration of compounds, the same procedure as in Experimental Example 1 was used. However, the administration was effected twice on the day 1 and the day 3.

[5] = test system: mouse ovarian tumor M5076; assay: Tumor weight of solid tumor of mouse ovarian tumor in BDF1 mice; format: in vivo; details: Table 10, 5-FU 150 mg/Kg, hEGF, [Leu^21 ]-hEGF or hEGF-II 100 μg/Kg subcutaneous, average ± standard error
Description: BDF1 male mice were employed. The feeding conditions were the same as in Experimental Example 1.
Mouse ovarian tumor M5076 was transplanted subcutaneously at the axialla of mouse in 1-2×10^6 cells per mouse. 12 days after transplantation, the size of tumor was measured according to the same method as in Experimental Example 1 (Colon 26) and the tumor weight was calculated.
The grouping operation on initiation of Experiments was conducted in the same manner as in Experimental Example 1. The compounds were administered in the same manner as in Experimental Example 9.
The experiment was carried out in the samme manner as in Experimental Examples 1, 7 and as in Experimental Example 17 for others.

Which “Tumor weight (day 1 = 100)” value ([1]; day 2) does the source give for `O=c1[nH]cc(F)c(=O)[nH]1` [5-FU, 5-fluorouracil] here?
Its value is 121.1 ± 9.6.

And the “Tumor weight (day 1 = 100)” value ([1]; day 3)?
The value was 120.4 ± 7.1.

And the “Tumor weight (day 1 = 100)” value ([1]; day 4)?
Its value is 124.0 ± 9.6.

What about the “Tumor weight (day 1 = 100)” value ([1]; day 5) of the same molecule?
The value was 122.5 ± 10.7.

And the “Tumor weight (day 1 = 100)” value ([1]; day 6)?
Its value is 129.7 ± 11.5.

What about the “Tumor weight (day 1 = 100)” value ([1]; day 7) of the same molecule?
Its value is 156.8 ± 14.1.

And the “Tumor weight (day 1 = 100)” value ([2]; Table 1, day 2, hEGF 100 μg/Kg subcutaneous on day 1, average ± standard error)?
Its value is 106.3 ± 31.8.

What about the “Tumor weight (day 1 = 100)” value ([2]; Table 1, day 4, hEGF 100 μg/Kg subcutaneous on day 1, average ± standard error) of the same molecule?
Its value is 84.5 ± 7.0.

And the “Tumor weight (day 1 = 100)” value ([2]; Table 1, day 5, hEGF 100 μg/Kg subcutaneous on day 1, average ± standard error)?
The value was 75.4 ± 10.3.

And the “Tumor weight (day 1 = 100)” value ([2]; Table 1, day 6, hEGF 100 μg/Kg subcutaneous on day 1, average ± standard error)?
Its value is 86.2 ± 9.5.

What about the “Tumor weight (day 1 = 100)” value ([2]; Table 1, day 7, hEGF 100 μg/Kg subcutaneous on day 1, average ± standard error) of the same molecule?
Its value is 121.1 ± 13.0.

And the “Tumor weight (day 1 = 100)” value ([2]; Table 1, day 8, hEGF 100 μg/Kg subcutaneous on day 1, average ± standard error)?
Its value is 147.3 ± 16.0.

What about the “Tumor weight (day 1 = 100)” value ([2]; Table 1, day 9, hEGF 100 μg/Kg subcutaneous on day 1, average ± standard error) of the same molecule?
Its value is 210.9 ± 22.9.

What about the “Tumor weight (day 1 = 100)” value ([2]; Table 11, day 2, FGF 100 μm/10 ml/Kg subcutaneous, average ± standard error of 6-8 mice) of the same molecule?
Its value is 102.6 ± 6.7.

What about the “Tumor weight (day 1 = 100)” value ([2]; Table 11, day 3, FGF 100 μm/10 ml/Kg subcutaneous, average ± standard error of 6-8 mice) of the same molecule?
Its value is 99.7 ± 7.2.

And the “Tumor weight (day 1 = 100)” value ([2]; Table 11, day 4, FGF 100 μm/10 ml/Kg subcutaneous, average ± standard error of 6-8 mice)?
Its value is 94.9 ± 8.7.

What about the “Tumor weight (day 1 = 100)” value ([2]; Table 11, day 5, FGF 100 μm/10 ml/Kg subcutaneous, average ± standard error of 6-8 mice) of the same molecule?
Its value is 158.6 ± 22.8.

And the “Tumor weight ratio(%)” value ([2]; Table 12, day 4 after compound administration, weight before administration = 100, Tegafur 400, 5-FU 150, Mitomycin-C 5, Cisplatin 5 mg/Kg, hIGF-II 50 μg/Kg subcutaneous, average ± standard error of 8-10 mice)?
Its value is 84.5 ± 7.0%.

What about the “Tumor weight ratio(%)” value ([2]; Table 14, hTGFα 100 μg/10 ml/Kg with 5-FU, Tegafur, Mitomycin-C, Adriamycin or Cisplatin, as described for Table 12) of the same molecule?
The value was 84.6 ± 7.0%.

What about the “Tumor weight ratio(%)” value ([2]; Table 15, day 4 after compound administration, hTGFβ and hEGF 100 μg/Kg with each compound having antitumor action) of the same molecule?
The value was 103.3 ± 15.4%.

What about the “Tumor weight % (average value ± standard error)” value ([2]; Table 20, 4 days after administration of 5-FU, 5-FU single subcutaneous) of the same molecule?
Its value is 93.9 ± 6.7%.

What about the “body weight reduction inhibiting effect (body weight minus tumor weight, FIG. 4)” value [3] of the same molecule?
The value was “no inhibiting effect of weight reduction could be recognized”.

What about the “Tumor weight (day 1 = 100)” value ([4]; Table 2, day 2, hEGF 100 μg/Kg subcutaneous on day 1 and day 3, average ± standard error of 9 mice) of the same molecule?
The value was 126.2 ± 5.5.

And the “Tumor weight (day 1 = 100)” value ([4]; Table 2, day 3, hEGF 100 μg/Kg subcutaneous on day 1 and day 3, average ± standard error of 9 mice)?
The value was 232.7 ± 15.9.

What about the “Tumor weight (day 1 = 100)” value ([4]; Table 2, day 4, hEGF 100 μg/Kg subcutaneous on day 1 and day 3, average ± standard error of 9 mice) of the same molecule?
Its value is 280.0 ± 31.7.

And the “Tumor weight (day 1 = 100)” value ([4]; Table 3, day 2, [Leu^21 ]-hEGF or hEGF-II 100 μg/Kg subcutaneous on day 1 and day 3, average ± standard error)?
Its value is 121.2 ± 10.5.

What about the “Tumor weight (day 1 = 100)” value ([4]; Table 3, day 3, [Leu^21 ]-hEGF or hEGF-II 100 μg/Kg subcutaneous on day 1 and day 3, average ± standard error) of the same molecule?
Its value is 232.7 ± 15.9.

And the “Tumor weight (day 1 = 100)” value ([4]; Table 3, day 4, [Leu^21 ]-hEGF or hEGF-II 100 μg/Kg subcutaneous on day 1 and day 3, average ± standard error)?
Its value is 280.0 ± 31.7.

And the “Tumor weight (day 1 = 100)” value ([5]; day 2)?
Its value is 114.7 ± 7.5.

What about the “Tumor weight (day 1 = 100)” value ([5]; day 3) of the same molecule?
Its value is 115.2 ± 8.3.

And the “Tumor weight (day 1 = 100)” value ([5]; day 4)?
The value was 134.6 ± 8.9.

And the “Tumor weight (day 1 = 100)” value ([5]; day 5)?
The value was 187.3 ± 19.3.

What about the “Tumor weight (day 1 = 100)” value ([5]; day 6) of the same molecule?
Its value is 230.1 ± 29.4.
